Here are results for 10 compounds from PubChem BioAssay (NCI).

Some test systems named below: 786-0 renal; CAKI-1 renal; HCC-2998 colon; HCT-116 colon; HCT-15 colon; MDA-N; NCI-H460 lung; OVCAR-3 ovarian; OVCAR-5 ovarian; OVCAR-8 ovarian; SK-MEL-2 melanoma; SK-OV-3 ovarian; SNB-19 CNS; SW-620 colon.
What all share (assay): growth of human tumour cells (NCI), 48 h

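Growth conditions: 96-well plates. Treatment: test compound, 48 hours, 5 concentrations. Analysis: linear interpolation between bracketing concentrations; unreached endpoints set to highest concentration. TGI: concentration producing complete growth inhibition.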 A value given as a limit tells only on which side of the number the result lay.

Consider `COc1cc(NS(C)(=O)=O)ccc1Nc1c2ccccc2nc2c1[nH]c1ccc(NC3OC(CO)C(O)C(O)C3O)cc12` (stereo not given), for which the TGI amounted to 0.339 µM with 786-0 renal; 0.091 µM in the test with CAKI-1 renal; 0.809 µM with HCC-2998 colon; 1.43 µM in the test on HCT-116 colon; 2.14 µM in the test with HCT-15 colon; 2.71 µM in the test on MDA-N. The TGI in the test with NCI-H460 lung was determined as 0.196 µM; in the test with OVCAR-3 ovarian, 2 µM; in the test with OVCAR-5 ovarian, 2.09 µM; in the test on OVCAR-8 ovarian, 0.95 µM; with SK-MEL-2 melanoma it was 1.36 µM; in the test with SK-OV-3 ovarian it was 0.299 µM. Further, the TGI came out at 1.46 µM in the test on SNB-19 CNS and 2.08 µM in the test on SW-620 colon.

Regarding `O=Cc1[nH]c(=O)[nH]c(=O)c1C(=O)O`, the TGI with 786-0 renal, in the test with CAKI-1 renal, in the test with HCC-2998 colon, with HCT-116 colon, in the test on HCT-15 colon and in the test with MDA-N was > 100 µM throughout. In addition, the TGI in the test with NCI-H460 lung, with OVCAR-3 ovarian, with OVCAR-5 ovarian, with OVCAR-8 ovarian, in the test on SK-MEL-2 melanoma and in the test with SK-OV-3 ovarian was > 100 µM each time. In addition, the TGI with SNB-19 CNS and in the test on SW-620 colon was > 100 µM each time.

With `Oc1[nH]c2ccccc2c1N=NC(=S)Nc1cccc(Cl)c1`, the TGI with 786-0 renal is 27.6 µM; in the test with CAKI-1 renal it was 44.9 µM; in the test with HCC-2998 colon it was > 100 µM; in the test with HCT-116 colon it was 17.3 µM; with HCT-15 colon it was > 100 µM; in the test with MDA-N, > 100 µM. The TGI in the test on NCI-H460 lung is 65.2 µM; with OVCAR-3 ovarian it was > 100 µM; in the test on OVCAR-5 ovarian, > 100 µM; in the test with OVCAR-8 ovarian, 35.7 µM; in the test on SK-MEL-2 melanoma, 89.6 µM; with SK-OV-3 ovarian it was 61.1 µM. Moreover, the TGI was > 100 µM in the test with SNB-19 CNS and 26.8 µM in the test on SW-620 colon.

As to `Cc1cc(S(=O)(=O)Nc2n[nH]c(N)n2)c(SCC(=O)O)cc1Cl`, the TGI with 786-0 renal, with CAKI-1 renal, in the test on HCC-2998 colon, with HCT-116 colon, in the test on HCT-15 colon and with MDA-N was > 10 µM in each case. In addition, the TGI in the test on NCI-H460 lung, in the test with OVCAR-3 ovarian, in the test on OVCAR-5 ovarian, in the test on OVCAR-8 ovarian, in the test with SK-MEL-2 melanoma and in the test on SK-OV-3 ovarian was > 10 µM in each case. Further, the TGI in the test with SNB-19 CNS and with SW-620 colon was > 10 µM throughout.

As for `CCOC(=O)C12OC(CCC1=O)C(C(=O)OC)=C2C(=O)OC` (stereo not given), the TGI in the test on 786-0 renal, in the test with CAKI-1 renal, in the test on HCC-2998 colon, with HCT-116 colon, in the test with HCT-15 colon and with MDA-N was > 10 µM throughout. Moreover, the TGI in the test with NCI-H460 lung, with OVCAR-3 ovarian, in the test with OVCAR-5 ovarian, in the test on OVCAR-8 ovarian, with SK-MEL-2 melanoma and in the test with SK-OV-3 ovarian was > 10 µM in each case. In addition, the TGI with SNB-19 CNS and with SW-620 colon was > 10 µM throughout.

On to `CC(CO)(CO)N1C(=O)C2C3C=CC(C3)C2C1=O` (stereo not given), for which the TGI in the test on 786-0 renal, in the test on CAKI-1 renal, in the test with HCC-2998 colon, in the test with HCT-116 colon, in the test on HCT-15 colon and in the test on MDA-N was > 100 µM throughout. The TGI in the test with NCI-H460 lung, with OVCAR-3 ovarian, in the test on OVCAR-5 ovarian, in the test with OVCAR-8 ovarian, in the test with SK-MEL-2 melanoma and with SK-OV-3 ovarian was > 100 µM throughout. Moreover, the TGI in the test on SNB-19 CNS and in the test on SW-620 colon was > 100 µM in each case.

Turning to `CCCCCCOC(=O)/C=C/[C@]1(CO)C/C(=C/CC(C(C)C)C(C)C)C(=O)O1`, the TGI in the test with 786-0 renal was determined as 17.6 µM; in the test with CAKI-1 renal, 23.7 µM; in the test on HCC-2998 colon, 6.18 µM; in the test on HCT-116 colon it was 25.9 µM; with HCT-15 colon, 28.6 µM; in the test on MDA-N, 5.35 µM. Besides, the TGI in the test on NCI-H460 lung turned out to be 20.5 µM; in the test on OVCAR-3 ovarian it was 29.8 µM; in the test with OVCAR-5 ovarian, 25.6 µM; in the test on OVCAR-8 ovarian it was 31.6 µM; in the test with SK-MEL-2 melanoma it was 30.7 µM; in the test with SK-OV-3 ovarian it was 37.7 µM. Moreover, the TGI turned out to be 22.6 µM in the test with SNB-19 CNS and 27.7 µM in the test on SW-620 colon.

With `O=C(Oc1ccccn1)c1cc2cc(CCl)ccc2oc1=O`, the TGI with 786-0 renal is 39.6 µM; in the test with CAKI-1 renal it was 77.3 µM; with HCC-2998 colon, > 100 µM; in the test with HCT-116 colon, 69.4 µM; in the test on HCT-15 colon, > 100 µM; with MDA-N, > 100 µM. Also, the TGI in the test with NCI-H460 lung was > 100 µM; in the test with OVCAR-3 ovarian, 38.1 µM; in the test with OVCAR-5 ovarian, > 100 µM; in the test on OVCAR-8 ovarian, > 100 µM; in the test on SK-MEL-2 melanoma, > 100 µM; in the test on SK-OV-3 ovarian, > 100 µM. The results for the TGI with SNB-19 CNS and in the test on SW-620 colon were 71.2 µM and > 100 µM, respectively.

Regarding `NC(=O)C(C(N)=O)=C(O)C(=O)/C=C(\O)c1ccccc1`, the TGI in the test with 786-0 renal, with CAKI-1 renal, with HCC-2998 colon, with HCT-116 colon, in the test with HCT-15 colon and in the test with MDA-N was > 100 µM each time. Moreover, the TGI in the test with NCI-H460 lung, with OVCAR-3 ovarian, in the test on OVCAR-5 ovarian, with OVCAR-8 ovarian, with SK-MEL-2 melanoma and with SK-OV-3 ovarian was > 100 µM each time. For the same compound, the TGI in the test on SNB-19 CNS and in the test with SW-620 colon was > 100 µM each time.

With `CCOC1OC(=O)c2cc3ccc4c(c3c(-c3ccc5c(c3)OCO5)c21)OCO4` (stereo not given), the TGI is > 100 µM in the test with 786-0 renal; > 100 µM in the test with CAKI-1 renal; 20.3 µM with HCC-2998 colon; 18.6 µM in the test with HCT-116 colon; > 100 µM in the test on HCT-15 colon; 5.2 µM in the test on MDA-N. Besides, the TGI in the test with NCI-H460 lung was 28.1 µM; with OVCAR-3 ovarian it was 3.77 µM; in the test on OVCAR-5 ovarian it was > 100 µM; in the test with OVCAR-8 ovarian it was > 100 µM; in the test on SK-MEL-2 melanoma, > 100 µM; in the test with SK-OV-3 ovarian it was > 29.9 µM. Also, the TGI with SNB-19 CNS and with SW-620 colon was > 100 µM throughout.
